Assay results from publication PMC6639853, “Deciphering Direct and Indirect Effects of Neurokinin B and GnRH in the Brain-Pituitary Axis of Tilapia” (Frontiers in Endocrinology, 2019).
“And” between values parts separate entries of the source, which are not always exact repeats. Identical values can stand only once. Like-named read-outs stand apart in the source and are kept apart here. Starred links: 1 amine or outer side, 2 acyl side, 3 side chain; linkers in the order of their positions; H or OH if unused. Non-standard residues stand in square brackets, D forms with d. Residues, ends and D or L forms follow the SMILES beside them. NMeI = CC[C@H](C)[C@H](NC)C(=O)O; Suc = O=C(CCC(=O)[*:2])[*:1]; NMeV = CN[C@H](C(=O)O)C(C)C

Key:
huTAC3R (NK3R) = target: T1, huTAC3R (NK3R) (Homo sapiens, UniProt P29371); assay: CRE-/SRE-Luc receptor transactivation reporter assay in COS-7 cells, human TAC3R; assay type: cell-based; settings: mean ± SEM
T1 construct: host or cells: COS-7
T1 sequence (P29371 1-465): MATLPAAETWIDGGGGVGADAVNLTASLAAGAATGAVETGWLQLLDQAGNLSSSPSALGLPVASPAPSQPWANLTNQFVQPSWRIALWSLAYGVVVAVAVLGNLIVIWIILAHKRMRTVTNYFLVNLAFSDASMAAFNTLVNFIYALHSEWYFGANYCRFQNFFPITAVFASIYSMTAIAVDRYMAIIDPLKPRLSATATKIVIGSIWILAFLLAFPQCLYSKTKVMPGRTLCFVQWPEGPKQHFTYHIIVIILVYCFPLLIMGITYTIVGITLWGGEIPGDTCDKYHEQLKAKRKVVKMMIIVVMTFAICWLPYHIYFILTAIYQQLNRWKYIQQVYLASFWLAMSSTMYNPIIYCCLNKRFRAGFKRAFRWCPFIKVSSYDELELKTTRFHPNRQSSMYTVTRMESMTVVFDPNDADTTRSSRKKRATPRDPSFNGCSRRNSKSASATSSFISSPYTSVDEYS
Excerpt: (§1) Receptor transactivation assays were generally performed according to Biran et al. ([10]). Briefly, in order to study the signaling pathways of the novel fish NKB and NKF analogs, the entire coding sequence of tiTac3ra (GenBank accession no. KF471674), tiTac3rb (GenBank accession no. KF471675), zfTac3ra (GenBank accession no. JF317292) and zfTac3rb (GenBank accession no. JF317293) were inserted into pcDNA3.1 (Invitrogen). To differentiate between the protein kinase A (PKA) and PKC signal transduction pathways, we used a sensitive luciferase (Luc) reporter gene assay. […] The cDNA clone for human TAC3R was obtained from the Missouri S&T cDNA Resource Center (www.cdna.org). Three micrograms of each construct together with three micrograms of a luciferase reporter plasmid were transiently co-transfected into COS-7 cells. […] EC50 values were calculated from dose response curves by means of computerized non-linear curve fitting on baseline-corrected (control) values using Prism version 6 software (GraphPad).

tiTac3ra = tiTac3ra (Oreochromis niloticus, UniProt A0A075QPN8); assay: cell-based; settings: COS-7 cells, mean ± SEM
Excerpt: (§2) Receptor transactivation assays were generally performed according to Biran et al. ([10]). Briefly, in order to study the signaling pathways of the novel fish NKB and NKF analogs, the entire coding sequence of tiTac3ra (GenBank accession no. KF471674), tiTac3rb (GenBank accession no. KF471675), zfTac3ra (GenBank accession no. JF317292) and zfTac3rb (GenBank accession no. JF317293) were inserted into pcDNA3.1 (Invitrogen). To differentiate between the protein kinase A (PKA) and PKC signal transduction pathways, we used a sensitive luciferase (Luc) reporter gene assay. […] Three micrograms of each construct together with three micrograms of a luciferase reporter plasmid were transiently co-transfected into COS-7 cells. […] EC50 values were calculated from dose response curves by means of computerized non-linear curve fitting on baseline-corrected (control) values using Prism version 6 software (GraphPad).

tiTac3rb = tiTac3rb (Oreochromis niloticus, UniProt A0A075QUD7); assay: cell-based; settings: COS-7 cells, mean ± SEM
Excerpt: as §2

zfTac3ra = target: T2, zfTac3ra (Danio rerio, UniProt H6A6A7); assay: CRE-/SRE-Luc receptor transactivation reporter assay in COS-7 cells, zebrafish Tac3ra; assay type: cell-based; settings: mean ± SEM
T2 sequence (H6A6A7 1-399): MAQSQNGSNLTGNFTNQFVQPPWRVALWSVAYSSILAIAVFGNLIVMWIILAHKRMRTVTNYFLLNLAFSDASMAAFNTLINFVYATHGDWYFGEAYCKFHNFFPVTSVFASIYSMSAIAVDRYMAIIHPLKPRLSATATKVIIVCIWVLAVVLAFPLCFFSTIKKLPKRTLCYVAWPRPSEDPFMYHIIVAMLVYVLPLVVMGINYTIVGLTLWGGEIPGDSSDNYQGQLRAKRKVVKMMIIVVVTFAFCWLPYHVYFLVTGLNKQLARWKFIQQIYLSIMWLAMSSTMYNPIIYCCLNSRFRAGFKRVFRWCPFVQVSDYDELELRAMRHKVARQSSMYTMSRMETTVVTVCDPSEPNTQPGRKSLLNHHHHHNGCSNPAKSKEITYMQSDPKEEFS
Excerpt: as §1

zfTac3rb = target: T3, zfTac3rb (Danio rerio, UniProt F1R3V0); assay: CRE-/SRE-Luc receptor transactivation reporter assay in COS-7 cells, zebrafish Tac3rb; assay type: cell-based; settings: mean ± SEM
T3 sequence (F1R3V0 1-395): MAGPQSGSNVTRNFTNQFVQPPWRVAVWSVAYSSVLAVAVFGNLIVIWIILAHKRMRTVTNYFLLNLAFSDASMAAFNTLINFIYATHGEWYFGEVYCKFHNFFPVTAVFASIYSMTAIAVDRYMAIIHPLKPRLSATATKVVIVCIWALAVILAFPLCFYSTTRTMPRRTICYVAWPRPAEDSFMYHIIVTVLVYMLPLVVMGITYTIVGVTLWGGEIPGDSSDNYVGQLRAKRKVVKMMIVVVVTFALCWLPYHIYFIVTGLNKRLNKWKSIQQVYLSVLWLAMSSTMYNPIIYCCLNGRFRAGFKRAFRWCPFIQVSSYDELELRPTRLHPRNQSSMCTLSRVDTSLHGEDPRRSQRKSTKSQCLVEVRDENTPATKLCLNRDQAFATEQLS
Excerpt: as §1

female tilapia = assay: In vivo effect on GH, FSH and LH plasma levels (ELISA) after IP injection; set-up: species or system Nile tilapia (O. niloticus); settings: peptides/analogs 100 μg/kg BW, sGnRHa 10 μg/kg BW
Procedure: Adult female tilapia (BW 89.29 ± 32.93 g) were injected IP with saline, sGnRH analog ([…]; 10 μg/kg BW; [[…],[…]-Net]-mammalian GnRH; Bachem), tiNKB, tiNKF, or their analogs at 100 μg/kg BW (n = 8 fish per group). The fish were bled from the caudal blood vessels into heparinized syringes 1, 2, 4, 8, and 24 h after injection and blood was centrifuged (3,200 rpm for 30 min at 4°C) to obtain plasma samples, which were stored at -20°C until assayed. This time course is according to standard protocols used previously ([28], [29]) to test the effect of GnRH and other hypothalamic neuropeptides on circulating levels of LH, FSH, and GH in tilapia. Blood samples were collected from the caudal vasculature. Three independent experiments were carried out for the in vivo studies. Levels of LH, FSH, and GH in the plasma were measured by specific competitive ELISAs developed for tilapia ([30], [31]) based on recombinant ([…] or rtiGH. Primary antisera was produced against […]β, or rtGH ([31]), and […]βα ([28]) or rtGH was used for generating the standard curves.

[1] = SRE-Luc reporter (PKC/Ca2+), read-out: EC50 huTAC3R (NK3R) SRE
[2] = EC50 tiTac3ra CRE, CRE-Luc reporter (PKA/cAMP)
[3] = EC50 tiTac3ra SRE, SRE-Luc reporter (PKC/Ca2+)
[4] = EC50 tiTac3rb CRE, CRE-Luc reporter (PKA/cAMP)
[5] = EC50 tiTac3rb SRE, SRE-Luc reporter (PKC/Ca2+)
[6] = CRE-Luc reporter (PKA/cAMP), read-out: EC50 huTAC3R (NK3R) CRE
[7] = CRE-Luc reporter (PKA/cAMP), read-out: EC50 zfTac3ra CRE
[8] = SRE-Luc reporter (PKC/Ca2+), read-out: EC50 zfTac3ra SRE
[9] = CRE-Luc reporter (PKA/cAMP), read-out: EC50 zfTac3rb CRE
[10] = SRE-Luc reporter (PKC/Ca2+), read-out: EC50 zfTac3rb SRE

tiTac3ra, sequence (A0A075QPN8 1-415): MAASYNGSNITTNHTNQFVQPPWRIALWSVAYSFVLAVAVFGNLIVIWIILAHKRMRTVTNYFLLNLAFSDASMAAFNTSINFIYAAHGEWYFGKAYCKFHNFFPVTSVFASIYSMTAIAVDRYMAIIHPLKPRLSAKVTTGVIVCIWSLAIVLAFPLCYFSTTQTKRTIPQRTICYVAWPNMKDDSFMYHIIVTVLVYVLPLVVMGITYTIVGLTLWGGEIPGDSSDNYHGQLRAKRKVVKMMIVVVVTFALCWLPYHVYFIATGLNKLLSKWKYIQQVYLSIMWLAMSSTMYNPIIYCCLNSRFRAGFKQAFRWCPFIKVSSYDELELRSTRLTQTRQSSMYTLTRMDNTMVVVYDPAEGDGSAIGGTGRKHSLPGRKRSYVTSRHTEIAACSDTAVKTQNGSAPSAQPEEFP
tiTac3rb, sequence (A0A075QUD7 1-361): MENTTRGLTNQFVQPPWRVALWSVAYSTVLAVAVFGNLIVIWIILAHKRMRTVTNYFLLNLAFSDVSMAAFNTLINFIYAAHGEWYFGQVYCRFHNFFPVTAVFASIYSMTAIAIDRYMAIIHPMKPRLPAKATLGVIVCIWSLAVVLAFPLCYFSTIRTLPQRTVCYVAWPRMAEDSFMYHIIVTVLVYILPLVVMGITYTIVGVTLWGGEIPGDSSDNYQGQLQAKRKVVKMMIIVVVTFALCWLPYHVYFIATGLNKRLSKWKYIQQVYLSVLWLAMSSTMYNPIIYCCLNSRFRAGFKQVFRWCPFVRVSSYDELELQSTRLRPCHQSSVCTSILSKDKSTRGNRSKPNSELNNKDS

Row | Compound | EC50 (huTAC3R (NK3R); [1]) [nM] | EC50 (huTAC3R (NK3R); [6]) [nM] | EC50 (zfTac3ra; [7]) | EC50 (zfTac3ra; [8]) [nM] | EC50 (zfTac3rb; [9]) [nM] | EC50 (zfTac3rb; [10]) [nM] | EC50 (tiTac3ra; [2]) [nM] | EC50 (tiTac3ra; [3]) | EC50 (tiTac3rb; [4]) [nM] | EC50 (tiTac3rb; [5]) [nM] | duration of increased plasma LH post-injection (female tilapia)
1 | CC[C@H](C)[C@H](NC(=O)[C@H](CC(=O)O)NC(=O)CCC(=O)O)C(=O)N[C@@H](Cc1ccccc1)C(=O)N(C)[C@H](C(=O)NCC(=O)N[C@@H](CC(C)C)C(=O)N[C@@H](CCSC)C(N)=O)[C@@H](C)CC [tiNKB analog, Succ-Asp-Ile-Phe-N(Me)Ile-Gly-Leu-Met-NH2] (Suc-DIF[NMeI]GLM-NH2) | 210.2 ± 1.18 |  |  |  |  |  | 12.9 ± 0.36 | 12.3 ± 0.29 nM | 6.88 ± 0.29 | 1.73 ± 0.46 | 
2 | CSCC[C@H](NC(=O)[C@H](CC(C)C)NC(=O)CNC(=O)[C@@H](NC(=O)[C@H](Cc1ccccc1)NC(=O)[C@H](CO)NC(=O)[C@H](CC(=O)O)NC(=O)[C@H](Cc1ccc(O)cc1)NC(=O)[C@H](CC(=O)O)NC(=O)[C@H](CC(C)C)NC(=O)[C@H](CC(=O)O)NC(=O)[C@H](CC(N)=O)NC(=O)[C@@H](N)Cc1ccc(O)cc1)C(C)C)C(N)=O [tiNKF] (H-YNDLDYDSFVGLM-NH2) | 32.58 ± 0.05 | 0.51 ± 0.24 |  |  |  |  | 3.17 ± 0.18 | 0.2 nM and 0.24 nM | 2.13 ± 0.42 | 0.46 ± 0.49 | 
3 | [D-Ala^6,Pro^9-Net]-mammalian GnRH [sGnRHa] |  |  |  |  |  |  |  |  |  |  | up to 4 h

Now from value to compound, other results behind:

Row | EC50 (huTAC3R (NK3R); [1]) [nM] | EC50 (huTAC3R (NK3R); [6]) [nM] | EC50 (zfTac3ra; [7]) | EC50 (zfTac3ra; [8]) [nM] | EC50 (zfTac3rb; [9]) [nM] | EC50 (zfTac3rb; [10]) [nM] | Compound | EC50 (tiTac3ra; [2]) [nM] | EC50 (tiTac3ra; [3]) | EC50 (tiTac3rb; [4]) [nM] | EC50 (tiTac3rb; [5]) [nM] | duration of increased plasma LH post-injection (female tilapia)
4 | 0.03 | 11.5 ± 0.4 | 873.2 ± 0.64 nM | 7.88 ± 1.89 | 0.781 ± 0.15 | 5.79 ± 0.52 | CC[C@H](C)[C@H](NC(=O)[C@H](CC(=O)O)NC(=O)CCC(=O)O)C(=O)N[C@@H](Cc1ccccc1)C(=O)N(C)[C@H](C(=O)NCC(=O)N[C@@H](CC(C)C)C(=O)N[C@@H](CCSC)C(N)=O)C(C)C [zfNKBa analog, Succ-Asp-Ile-Phe-N(Me)Val-Gly-Leu-Met-NH2] (Suc-DIF[NMeV]GLM-NH2) |  |  |  |  | 
5 | 0.11 ± 0.3 | 1.71 ± 0.32 | 26.5 ± 0.38 nM | 139.6 ± 0.38 | 41.37 ± 0.18 | 1.1 ± 0.13 | CC[C@H](C)[C@H](NC(=O)[C@H](CC(=O)O)NC(=O)[C@H](Cc1c[nH]cn1)NC(=O)[C@H](CCSC)NC(=O)[C@@H](N)CCC(=O)O)C(=O)N[C@@H](Cc1ccccc1)C(=O)N[C@H](C(=O)NCC(=O)N[C@@H](CC(C)C)C(=O)N[C@@H](CCSC)C(N)=O)C(C)C [zfNKBa] (H-EMHDIFVGLM-NH2) |  |  |  |  | 
6 | 18.7 ± 0.25 | 17.4 ± 0.15 | 0.94 nM and 0.948 nM | 84.98 ± 0.31 | 101.4 ± 0.37 | 17.9 ± 0.43 | CC[C@H](C)[C@H](NC(=O)CNC(=O)[C@@H](NC(=O)[C@@H](N)CO)[C@@H](C)O)C(=O)N[C@@H](CC(N)=O)C(=O)N[C@@H](CCCNC(=N)N)C(=O)N[C@@H](CCC(=O)O)C(=O)N[C@@H](C)C(=O)N[C@@H](Cc1c[nH]cn1)C(=O)N[C@@H](CC(C)C)C(=O)N1CCC[C@H]1C(=O)N[C@@H](Cc1ccccc1)C(=O)N[C@@H](CCCNC(=N)N)C(=O)N1CCC[C@H]1C(=O)N[C@@H](CC(N)=O)C(=O)N[C@@H](CCSC)C(=O)N[C@@H](CC(N)=O)C(=O)N[C@@H](CC(=O)O)C(=O)N[C@H](C(=O)N[C@@H](Cc1ccccc1)C(=O)N[C@H](C(=O)NCC(=O)N[C@@H](CC(C)C)C(=O)N[C@@H](CC(C)C)C(=O)N[C@@H](CCC(=O)O)C(=O)N[C@@H](CCSC)C(=O)N[C@@H](Cc1c[nH]cn1)C(=O)N[C@@H](CC(=O)O)C(=O)N[C@H](C(=O)N[C@@H](Cc1ccccc1)C(=O)N[C@H](C(=O)NCC(=O)N[C@@H](CC(C)C)C(=O)N[C@@H](CCSC)C(N)=O)C(C)C)[C@@H](C)CC)C(C)C)[C@@H](C)CC [zfNKBb] (H-STGINREAHLPFRPNMNDIFVGLLEMHDIFVGLM-NH2) |  |  |  |  | 
7 | 0.18 ± 0.52 | 1.25 | 5.47 ± 0.43 nM | 0.51 ± 0.36 | 0.032 | 25.51 ± 0.23 | CC[C@H](C)[C@H](NC(=O)[C@H](CC(=O)O)NC(=O)[C@H](CC(N)=O)NC(=O)[C@@H](N)Cc1ccc(O)cc1)C(=O)N[C@@H](CC(=O)O)C(=O)N[C@@H](Cc1ccc(O)cc1)C(=O)N[C@@H](CC(=O)O)C(=O)N[C@@H](CO)C(=O)N[C@@H](Cc1ccccc1)C(=O)N[C@H](C(=O)NCC(=O)N[C@@H](CC(C)C)C(=O)N[C@@H](CCSC)C(N)=O)C(C)C [zfNKF] (H-YNDIDYDSFVGLM-NH2) |  |  |  |  | 
